Measured values published in patent publication US11234971B2, “Methods of treating cancer comprising administration of a glucocorticoid receptor modulator and a cancer chemotherapy agent” (Corcept Therapeutics Incorporated, priority 2018, dated 2022).
pKi: −log10 of the molar value.

Key:
androgen receptor = androgen receptor (Homo sapiens, UniProt P10275); conditions: cited from earlier work
MIA PaCa-2 xenograft = MIA PaCa-2 xenograft tumor growth in immunodeficient mice; type: in vivo
Text: The present example, Example 3, provides results of administration of the glucocorticoid receptor modulator relacorilant to cancerous cells. […] The MIA PaCa-2 xenograft model uses MIA PaCa-2 cell-line cells (pancreatic tumor cells derived from a pancreatic adenocarcinoma from a patient) engrafted into immunodeficient mice. The ovarian OVCAR-5 cell line is derived from a human epithelial carcinoma of the ovary, and was established from ascitic fluid obtained (prior to cytotoxic treatment) from a patient with progressive ovarian adenocarcinoma.
FIG. 10A. Relacorilant sensitizes the MIA PaCa-2 xenograft to paclitaxel. Tumor volume of PaCa-2 xenograft tumors implanted in immunodeficient mice is shown as a function of time (days) after implantation in the presence of vehicle (filled circles), paclitaxel (7.5 mg/kg; filled squares), relacorilant alone (upwardly pointing triangles), and relacorilant+7.5 mg/kg paclitaxel (downwardly pointing triangles). 7.5 mg/kg paclitaxel was administered three times (at the days indicated by the dashed vertical lines, indicating days 8, 12, and 16 following tumor implantation into the mice).
FIG. 10B. Relacorilant with Paclitaxel Reduces MIA PaCa-2 xenograft Tumor Volume. Initial tumor volume of PaCa-2 xenograft tumors implanted in immunodeficient mice was less than 400 cubic millimeters (mm^3). […] Tumor size progression is thus indicated by lines descending from the top (100%) value. The tumor-bearing mice were treated with vehicle, relacorilant (30 mg/kg every day), paclitaxel (three doses of 7.5 mg/kg paclitaxel, one dose administered on each of the days indicated in FIG. 10A), and the combination relacorilant (30 mg/kg every day) with paclitaxel (7.5 mg/kg doses of paclitaxel each administered on days 8, 12, and 16 post implantation). […] Xenograft tumor growth was slowed by combined relacorilant+paclitaxel as compared to either paclitaxel alone or relacorilant alone. Relacorilant thus enhanced sensitivity to paclitaxel in the pancreatic MIA PaCa-2 xenograft model.

glucocorticoid receptor = target: T1, glucocorticoid receptor (Homo sapiens, UniProt P04150); conditions: cited from earlier work
T1 sequence (P04150 1-777): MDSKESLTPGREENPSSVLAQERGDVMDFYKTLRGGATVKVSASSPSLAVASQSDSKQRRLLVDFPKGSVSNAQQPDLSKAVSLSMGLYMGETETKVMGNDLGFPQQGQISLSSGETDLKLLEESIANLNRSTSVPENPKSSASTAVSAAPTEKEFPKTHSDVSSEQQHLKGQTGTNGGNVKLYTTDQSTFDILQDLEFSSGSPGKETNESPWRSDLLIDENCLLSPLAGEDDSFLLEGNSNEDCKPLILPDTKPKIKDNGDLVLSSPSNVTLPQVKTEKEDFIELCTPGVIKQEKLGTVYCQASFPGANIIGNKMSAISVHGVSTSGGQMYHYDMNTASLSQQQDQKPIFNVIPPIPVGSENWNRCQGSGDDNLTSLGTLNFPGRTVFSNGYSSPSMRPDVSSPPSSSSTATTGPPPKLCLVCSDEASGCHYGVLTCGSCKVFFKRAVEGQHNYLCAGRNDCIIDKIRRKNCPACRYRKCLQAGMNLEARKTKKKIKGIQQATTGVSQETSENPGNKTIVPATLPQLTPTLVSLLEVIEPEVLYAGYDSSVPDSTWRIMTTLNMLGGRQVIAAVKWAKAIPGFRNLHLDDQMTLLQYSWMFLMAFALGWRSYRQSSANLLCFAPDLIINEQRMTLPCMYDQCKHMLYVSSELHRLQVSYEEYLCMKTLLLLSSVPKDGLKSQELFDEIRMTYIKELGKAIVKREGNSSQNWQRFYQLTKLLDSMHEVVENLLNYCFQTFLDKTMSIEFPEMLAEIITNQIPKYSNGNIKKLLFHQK

GR-controlled genes = assay: Whole blood mRNA expression (NanoString) in cancer patients of study NCT02762981, baseline vs C1D15; type: in vivo, human; conditions: for expression levels of COX2, DUSP1, GSK3b, MCL-1, PIK3CG and RGS-2 (mRNA): 40 cancer patients (FIG. 5B); for genes downregulated in whole blood, baseline to C1D15: 800-gene panel, relacorilant+nab-paclitaxel; for enrichment of genes shared in the sets induced by prednisone and suppressed by relacorilant / genes shared in the sets induced by prednisone and suppressed by relacorilant: top 200 genes each
Protocol: Blood was collected at baseline, prior to administration of relacorilant or nab-paclitaxel. Blood was also drawn in the morning, pre-dose, on cycle 1, day 15. Blood (in the amount of 2.5 milliLiters (mL)) was drawn into a PAXGene blood RNA tube (Qiagen) using a butterfly needle. The tube was sealed and gently inverted 10 times. The tube was frozen in dry ice and stored at −80° C. until RNA extraction.
Paired baseline and cycle 1, day 15 (C1D15) specimens were thawed and processed in the same batch. RNA was isolated using the PAXgene Blood RNA kit (Qiagen) using the protocol recommended by the manufacturer. RNA yield was quantified using a NanoDrop ND-2000 spectrophotometer (ThermoFisher Scientific). RNA was assessed using a custom 33-gene panel after mRNA sample preparation and hybridization using NanoString nCounter XT Assay, following the operation and maintenance instructions for the NanoString prep station and digital analyzer. Specific RNA transcripts were quantified using a Nanostring nCounter FLEX instrument (NanoString Technologies) and analyzed using nSolver 3.0. (Nanostring Technologies, Seattle Wash., USA).
Housekeeping gene pairwise correlations were determined using nSolver 3.0 (NanoString Technologies). Test genes were normalized to the housekeeping genes HPRT1, PPIB, TRAP1, EEF1A1, and TBP. Change from baseline was calculated using the RNA counts at baseline and cycle 1, day 15 as follows: Change from Baseline=(C1D15−baseline)/(baseline) Results Housekeeping Genes Selection
Calculations For FIG. 6, the normalized counts of 10 GR-controlled genes were averaged. Change from baseline of these averaged values was calculated per patient using the formula: Percent change from baseline=((average value at C1D15)−(average value at baseline))/(average value at baseline)*100Gene set enrichment statistics were calculated using the program available at the URL: Nemates.org/MA/progs/overlap_stats_prog.html
RNA isolation and quantification RNA was assessed using a custom 800-gene panel after mRNA sample preparation and hybridization using NanoString nCounter Assay, following the operation and maintenance instructions for the NanoString prep station and digital analyzer. The 800 gene panel was comprised of the Nanostring 10360™ panel plus the following 10 custom probes:
Data normalization and analysis Housekeeping gene pairwise correlations were determined using advanced analysis in nSolver 3.0 (NanoString Technologies). Test genes were normalized to the housekeeping genes selected by geNORM. […]

[1] = patients with progressive disease

Sequence of androgen receptor (P10275 whole entry, species assumed): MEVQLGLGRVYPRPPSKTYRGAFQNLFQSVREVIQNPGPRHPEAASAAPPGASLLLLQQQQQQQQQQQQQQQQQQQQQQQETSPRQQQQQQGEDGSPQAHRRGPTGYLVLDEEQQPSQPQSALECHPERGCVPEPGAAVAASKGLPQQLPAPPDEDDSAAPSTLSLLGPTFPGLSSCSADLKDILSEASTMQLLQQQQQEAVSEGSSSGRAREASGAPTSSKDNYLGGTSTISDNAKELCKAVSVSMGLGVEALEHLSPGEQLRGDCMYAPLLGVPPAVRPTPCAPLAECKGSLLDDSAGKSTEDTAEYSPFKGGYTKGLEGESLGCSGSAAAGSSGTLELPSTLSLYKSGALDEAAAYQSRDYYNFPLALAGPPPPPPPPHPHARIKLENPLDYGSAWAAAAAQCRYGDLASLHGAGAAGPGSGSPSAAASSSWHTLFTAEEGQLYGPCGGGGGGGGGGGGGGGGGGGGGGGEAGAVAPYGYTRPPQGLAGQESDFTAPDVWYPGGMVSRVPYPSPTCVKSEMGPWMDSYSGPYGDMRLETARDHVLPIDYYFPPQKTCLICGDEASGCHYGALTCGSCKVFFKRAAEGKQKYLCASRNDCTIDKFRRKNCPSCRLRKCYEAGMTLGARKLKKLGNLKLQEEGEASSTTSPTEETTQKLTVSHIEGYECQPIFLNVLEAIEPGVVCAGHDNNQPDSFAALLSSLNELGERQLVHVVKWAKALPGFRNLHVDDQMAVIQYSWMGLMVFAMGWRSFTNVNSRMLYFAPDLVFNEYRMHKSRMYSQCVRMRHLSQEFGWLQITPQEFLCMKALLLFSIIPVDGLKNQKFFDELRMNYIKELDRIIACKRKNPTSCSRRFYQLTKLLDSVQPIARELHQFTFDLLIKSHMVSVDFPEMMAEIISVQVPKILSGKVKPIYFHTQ

Cn1cc(S(=O)(=O)N2CCC3=Cc4c(cnn4-c4ccc(F)cc4)C[C@]3(C(=O)c3cc(C(F)(F)F)ccn3)C2)cn1 [relacorilant, (R)-(1-(4-fluorophenyl)-6-((1-methyl-1H-pyrazol-4-yl)sulfonyl)-4,4a,5,6,7,8-hexahydro-1H-pyrazolo[3,4-g]isoquinolin-4a-yl)(4-(trifluoromethyl)pyridin-2-yl)methanone]
pKi (androgen receptor): < 5.00 | time to progression (fraction of tumors whose volume remained below 400 mm^3) (MIA PaCa-2 xenograft; relacorilant (30 mg/kg every day) added to paclitaxel 7.5 mg/kg days 8, 12, 16, compared to paclitaxel alone, p<0.0001): delayed the time to progression | tumor growth (tumor volume over time) (MIA PaCa-2 xenograft; relacorilant added to 7.5 mg/kg paclitaxel (days 8, 12, 16), compared to paclitaxel alone, p<0.0001): delayed tumor growth | time to progression (fraction of tumors whose volume remained below 400 mm^3) (MIA PaCa-2 xenograft; single agent, relacorilant 30 mg/kg every day or paclitaxel 7.5 mg/kg on days 8, 12, 16): nearly superimposed on the vehicle line | binding to the glucocorticoid receptor (glucocorticoid receptor): potently binds | expression levels of COX2, DUSP1, GSK3b, MCL-1, PIK3CG, RGS-2, SGK1 and STAT3 (mRNA) (GR-controlled genes; 21 cancer patients (FIG. 5A), patients who derived benefit from relacorilant+nab-paclitaxel): decreased as compared to baseline | expression levels of COX2, DUSP1, GSK3b, MCL-1, PIK3CG, RGS-2, SGK1 (mRNA) (GR-controlled genes; 21 cancer patients (FIG. 5A), patients whose cancer progressed): did not exhibit decreased levels | expression levels of COX2, DUSP1, GSK3b, MCL-1, PIK3CG and RGS-2 (mRNA) (GR-controlled genes; patients who derived benefit from relacorilant+nab-paclitaxel): decreased as compared to baseline | expression levels of COX2, DUSP1, GSK3b, MCL-1, PIK3CG and RGS-2 (mRNA) (GR-controlled genes; patients whose cancer progressed): did not exhibit decreased levels | genes downregulated in whole blood, baseline to C1D15 (GR-controlled genes; PD patients): 30 genes | genes downregulated in whole blood, baseline to C1D15 (GR-controlled genes; SD/PR/CR patients): 92 genes | normalized DUSP1 mRNA counts, baseline vs cycle 1 day 15 (GR-controlled genes; all patients, relacorilant + nab-paclitaxel, paired t-test p=0.065): not significantly different | normalized DUSP1 mRNA counts, baseline vs cycle 1 day 15 (GR-controlled genes; patients experiencing benefit (SD, PR, CR), relacorilant + nab-paclitaxel, paired t-test p=0.015): significant decrease | decrease in DUSP1 counts, baseline vs cycle 1 day 15 (GR-controlled genes; patients with progressive disease, relacorilant + nab-paclitaxel): not observed | enrichment of genes shared in the sets induced by prednisone and suppressed by relacorilant (GR-controlled genes; patients who benefited): 2.2 fold | genes shared in the sets induced by prednisone and suppressed by relacorilant (GR-controlled genes; patients who benefited, p=3×10^−30): 116 genes | enrichment of genes shared in the sets induced by prednisone and suppressed by relacorilant (GR-controlled genes; [1]): 0.7 fold | genes shared in the sets induced by prednisone and suppressed by relacorilant (GR-controlled genes; [1]): 38 genes
